Test results reported in patent US9980943B2, “Methods of treating muscular dystrophy” (BOARD OF REGENTS OF THE NEVADA SYSTEM OF HIGHER EDUCATION, …, priority 2013, dated 2018).

Experiments:
Format in all cases: cell-based, mouse
[1] = tested on: α7 integrin (LacZ reporter in α7βgal+/− myoblasts); experiment: Myoblast α7+/LacZ integrin FDG assay (Burkin assay in myoblasts, 96-well); conditions: α7+/LacZ myoblasts, 96-well
[2] = tested on: β-galactosidase in CMV-LacZ C2C12 myotubes; experiment: CMV-LacZ secondary screen in C2C12 myotubes (β-Gal stabilizing assay); conditions: for CMV-LACZ in Myotubes, signal relative to DMSO: C2C12 CMV-LacZ myotubes, fold relative to DMSO; for CMV-LACZ in Myotubes (β-galactosidase activity relative to DMSO): CMV-LacZ C2C12 myotubes, 96-well format
Method in brief: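 β-Gal level was the read-out, measured in a clonal C2C12 line expressing LacZ from a CMV promoter. Dose-response curves used six concentrations, 0.5 μM up to 40 μM, with duplicate points.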

[3] = tested on: α7 integrin (LacZ reporter in α7+/LacZ myotubes); experiment: Myotube α7 integrin FDG assay (Burkin assay in myotubes, 96-well); conditions: myotubes

Compound	Burkin Assay in Myoblasts, value relative to DMSO ([1]; 0.5 uM)	Burkin Assay in Myoblasts, value relative to DMSO ([1]; 1 uM)	Burkin Assay in Myoblasts, value relative to DMSO ([1]; 5 uM)	Burkin Assay in Myoblasts, value relative to DMSO ([1]; 10 uM)	Burkin Assay in Myoblasts, value relative to DMSO ([1]; 20 uM)	Burkin Assay in Myoblasts, value relative to DMSO ([1]; 40 uM)	CMV-LACZ in Myotubes, signal relative to DMSO ([2]; 5 uM)	CMV-LACZ in Myotubes, signal relative to DMSO ([2]; 10 uM)	CMV-LACZ in Myotubes, signal relative to DMSO ([2]; 20 uM)	CMV-LACZ in Myotubes, signal relative to DMSO ([2]; 40 uM)	Burkin Assay in Myotubes (signal relative to DMSO) ([3]; 0.5 uM)	Burkin Assay in Myotubes (signal relative to DMSO) ([3]; 1 uM)	Burkin Assay in Myotubes (signal relative to DMSO) ([3]; 5 uM)	Burkin Assay in Myotubes (signal relative to DMSO) ([3]; 10 uM)	Burkin Assay in Myotubes (signal relative to DMSO) ([3]; 20 uM)	Burkin Assay in Myotubes (signal relative to DMSO) ([3]; 40 uM)	CMV-LACZ in Myotubes (β-galactosidase activity relative to DMSO) ([2]; 5 uM)	CMV-LACZ in Myotubes (β-galactosidase activity relative to DMSO) ([2]; 10 uM)	CMV-LACZ in Myotubes (β-galactosidase activity relative to DMSO) ([2]; 20 uM)	CMV-LACZ in Myotubes (β-galactosidase activity relative to DMSO) ([2]; 40 uM)	other results
CNC(=S)N1CCC(NC(=O)C(Cc2ccc(F)cc2)NC(C)=O)CC1 (centres unmarked) [MLS000710130-01]	0.9666	1.103	1.006	1.036	0.8326	0.8689	0.8144	0.8646	0.9864	0.9336	0.9811	0.8524	0.6183	0.6452	1.044	1.064					
O=C(NCCCn1ccnc1)/C(=C/c1cccs1)NC(=O)c1ccco1 [MLS000712769-01]	1.055	1.059	0.9476	0.9286	0.7697	0.7893	0.9651	1.071	0.9141	0.8582	0.9746	0.8428	1.2524	0.9038	0.9219	0.9817					
CS(=O)(=O)N(Cc1ccc(C(=O)NC2CCCC2)cc1)c1ccccc1 [MLS000714175-01]	0.5383	0.975	1.1625	1.06	0.9936	0.9626					1.086	1.061	1.131	1.013	1.119	1.022	0.9319	1.097	1.124	0.971	
COCCN1C=C(C(=O)OC)C(c2ccccc2Cl)C(C(=O)OC)=C1 [MLS000718886-01]	1.052	0.9394	1.087	0.9661	0.9124	0.8139					0.9819	0.9591	1.068	0.9981	0.938	0.9785	0.9787	0.9804	0.8798	0.8355	
C/C(=N/OC(=O)CC(C)C)c1cc(-c2ccc(Cl)cc2)no1 [MLS000721030-01]	0.9673	0.9348	1.027	1.166	1.025	1.122					0.9757	1.051	1.121	1.2344	1.1412	1.205	1.111	0.9655	0.9276	0.7917	
COC(=O)Cc1c(O)ccn(Cc2ccc3c(c2)OCO3)c1=O [MLS000721525-01]	1.086	1.086	0.9834	1.01	0.9936	0.985	0.866	1.036	0.8409	0.9127	0.6646	0.9136	0.6693	0.9806	0.8968	1.047					
N#Cc1ccc(OCC(O)CS(=O)(=O)c2ccccc2)cc1 (centres unmarked) [MLS000721584-01]							0.9573	0.9071	1.133	1.1019											Burkin Assay in Myoblasts, signal relative to DMSO ([1]; 0.5 uM): 0.933; Burkin Assay in Myoblasts, signal relative to DMSO ([1]; 1 uM): 0.8525; Burkin Assay in Myoblasts, signal relative to DMSO ([1]; 5 uM): 1.03; Burkin Assay in Myoblasts, signal relative to DMSO ([1]; 10 uM): 0.9846; Burkin Assay in Myoblasts, signal relative to DMSO ([1]; 20 uM): 0.8663; Burkin Assay in Myoblasts, signal relative to DMSO ([1]; 40 uM): 0.7628; Burkin Assay in Myotubes, α7 integrin LacZ reporter signal relative to DMSO ([3]; 0.5 uM): 0.9148; Burkin Assay in Myotubes, α7 integrin LacZ reporter signal relative to DMSO ([3]; 1 uM): 0.9833; Burkin Assay in Myotubes, α7 integrin LacZ reporter signal relative to DMSO ([3]; 5 uM): 0.8802; Burkin Assay in Myotubes, α7 integrin LacZ reporter signal relative to DMSO ([3]; 10 uM): 0.8867; Burkin Assay in Myotubes, α7 integrin LacZ reporter signal relative to DMSO ([3]; 20 uM): 0.9155; Burkin Assay in Myotubes, α7 integrin LacZ reporter signal relative to DMSO ([3]; 40 uM): 0.9927
O=Cc1cnc(N2CCCCC2)s1 [MLS000721730-01]	0.8377	0.8197	0.8157	0.8824	0.827	0.9342					0.9195	1.064	0.8563	1.025	0.877	1.071	0.8504	0.9207	0.9311	1.031	
